Results taken from patent US20220096487A1 (priority 2019, published 2022).

Experiments:
[1] = biological target: bile salt export pump (BSEP) (Homo sapiens, UniProt O95342); experiment: In vitro inhibition of BSEP; type: in vitro ADME; conditions: did not inhibit
[2] = biological target: OCT1 (Homo sapiens, UniProt O15245); experiment: In vitro inhibition of OCT1; type: in vitro ADME; conditions: did not inhibit
[3] = biological target: P-gp (Homo sapiens, UniProt P08183); experiment: In vitro substrate assessment, P-gp; type: in vitro ADME
[4] = biological target: CYP2B6 (Homo sapiens, UniProt P20813); experiment: In vitro inhibition of CYP2B6; type: in vitro ADME; conditions: did not inhibit
[5] = biological target: MATE1 (Homo sapiens, UniProt Q96FL8); experiment: In vitro inhibition of MATE1; type: in vitro ADME
[6] = Carcinogenicity studies in rats; conditions: two-year study, doses up to 50 mg/kg, highest dose tested
[7] = biological target: OAT3 (Homo sapiens, UniProt Q8TCC7); experiment: In vitro inhibition of OAT3; type: in vitro ADME
[8] = Dolutegravir embryo-fetal development study in pregnant rabbits; type: in vivo, rabbit; conditions: oral up to 1,000 mg/kg daily, gestation Days 6 to 18
[9] = test system: 13 clinically diverse clade B isolates; experiment: Viral integrase susceptibility assay using integrase coding region from clinical isolates; type: cell-based, HIV-1; conditions: Human immunodeficiency virus 1; 13 clade B isolates
[10] = biological target: MRP4 (Homo sapiens, UniProt O15439); experiment: In vitro inhibition of MRP4; type: in vitro ADME; conditions: did not inhibit
Chain of MRP4 (O15439 whole entry): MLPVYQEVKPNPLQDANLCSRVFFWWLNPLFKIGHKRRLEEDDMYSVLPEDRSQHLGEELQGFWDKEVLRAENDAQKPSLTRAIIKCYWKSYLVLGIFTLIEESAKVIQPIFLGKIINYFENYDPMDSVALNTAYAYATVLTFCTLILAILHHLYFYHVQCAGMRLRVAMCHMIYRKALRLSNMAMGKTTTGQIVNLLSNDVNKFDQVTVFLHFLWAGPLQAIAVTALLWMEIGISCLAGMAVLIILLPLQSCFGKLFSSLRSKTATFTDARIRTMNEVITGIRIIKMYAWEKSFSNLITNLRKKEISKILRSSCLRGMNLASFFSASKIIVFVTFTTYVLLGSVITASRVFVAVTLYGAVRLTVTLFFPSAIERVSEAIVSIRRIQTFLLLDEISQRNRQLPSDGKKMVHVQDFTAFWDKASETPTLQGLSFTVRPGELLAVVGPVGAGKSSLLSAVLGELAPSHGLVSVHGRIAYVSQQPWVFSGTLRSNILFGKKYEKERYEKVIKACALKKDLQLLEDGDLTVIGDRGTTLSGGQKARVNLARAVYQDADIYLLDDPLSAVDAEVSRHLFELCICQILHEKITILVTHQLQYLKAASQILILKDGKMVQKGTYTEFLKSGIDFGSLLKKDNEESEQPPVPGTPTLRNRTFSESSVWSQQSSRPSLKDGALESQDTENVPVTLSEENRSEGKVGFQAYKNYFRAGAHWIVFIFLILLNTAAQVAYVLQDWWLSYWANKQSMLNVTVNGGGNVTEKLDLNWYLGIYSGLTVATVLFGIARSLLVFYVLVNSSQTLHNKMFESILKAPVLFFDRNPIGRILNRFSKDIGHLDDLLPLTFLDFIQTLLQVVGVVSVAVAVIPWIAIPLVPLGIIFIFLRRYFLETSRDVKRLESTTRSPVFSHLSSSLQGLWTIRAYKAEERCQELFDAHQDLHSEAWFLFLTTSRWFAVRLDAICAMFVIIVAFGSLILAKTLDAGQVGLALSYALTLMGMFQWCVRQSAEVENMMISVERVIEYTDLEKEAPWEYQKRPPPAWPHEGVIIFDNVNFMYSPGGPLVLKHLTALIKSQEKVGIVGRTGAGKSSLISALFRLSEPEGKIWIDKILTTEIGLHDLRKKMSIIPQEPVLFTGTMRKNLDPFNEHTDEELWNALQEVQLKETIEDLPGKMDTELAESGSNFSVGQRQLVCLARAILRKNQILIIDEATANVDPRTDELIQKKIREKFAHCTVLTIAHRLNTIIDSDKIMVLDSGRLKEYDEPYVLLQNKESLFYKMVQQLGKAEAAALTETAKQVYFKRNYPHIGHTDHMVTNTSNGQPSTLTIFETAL

[11] = biological target: T1, OATP1B3 (Homo sapiens, UniProt Q9NPD5); experiment: In vitro substrate assessment, OATP1B3; type: in vitro ADME
T1 sequence (Q9NPD5 whole entry): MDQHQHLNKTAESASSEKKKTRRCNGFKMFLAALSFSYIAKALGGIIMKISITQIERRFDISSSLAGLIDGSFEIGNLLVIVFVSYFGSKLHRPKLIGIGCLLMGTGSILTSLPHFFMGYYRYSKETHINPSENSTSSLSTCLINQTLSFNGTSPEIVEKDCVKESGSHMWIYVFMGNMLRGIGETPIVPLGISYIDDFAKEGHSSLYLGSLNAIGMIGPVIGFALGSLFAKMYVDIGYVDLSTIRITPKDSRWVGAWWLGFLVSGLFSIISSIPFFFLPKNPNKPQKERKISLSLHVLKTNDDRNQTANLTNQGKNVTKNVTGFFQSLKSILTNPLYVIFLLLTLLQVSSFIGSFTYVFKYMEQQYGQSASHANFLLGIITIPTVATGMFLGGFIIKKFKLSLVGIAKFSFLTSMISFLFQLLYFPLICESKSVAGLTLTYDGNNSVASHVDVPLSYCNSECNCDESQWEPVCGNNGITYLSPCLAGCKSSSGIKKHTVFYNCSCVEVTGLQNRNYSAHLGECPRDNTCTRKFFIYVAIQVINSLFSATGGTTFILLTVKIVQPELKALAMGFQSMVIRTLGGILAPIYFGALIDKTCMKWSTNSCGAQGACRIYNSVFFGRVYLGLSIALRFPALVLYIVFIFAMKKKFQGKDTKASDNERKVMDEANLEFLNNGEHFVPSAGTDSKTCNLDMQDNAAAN

[12] = biological target: multidrug resistance protein (MRP)2 (Homo sapiens, UniProt Q92887); experiment: In vitro inhibition of MRP2; type: in vitro ADME; conditions: did not inhibit
[13] = test system: CYP1A2; experiment: In vitro induction of CYP1A2; type: in vitro ADME
[14] = test system: L5178Y mouse lymphoma; experiment: Mouse lymphoma assay
[15] = test system: OAT1 and OAT3; experiment: In vivo effect on OAT1 and OAT3 substrates
[16] = cited from earlier work
[17] = biological target: renal OCT2 (Homo sapiens, UniProt O15244); experiment: In vitro inhibition of renal OCT2; type: in vitro ADME
[18] = biological target: CYP2C19 (Homo sapiens, UniProt P33261); experiment: In vitro inhibition of CYP2C19; type: in vitro ADME; conditions: did not inhibit
[19] = test system: CYP3A4; experiment: In vitro induction of CYP3A4; type: in vitro ADME
[20] = biological target: UGT1A9 (Homo sapiens, UniProt O60656); experiment: In vitro substrate assessment, UGT1A9; type: in vitro ADME
[21] = biological target: CYP2C9 (Homo sapiens, UniProt P11712); experiment: In vitro inhibition of CYP2C9; type: in vitro ADME; conditions: did not inhibit
Chain of CYP2C9 (P11712 whole entry): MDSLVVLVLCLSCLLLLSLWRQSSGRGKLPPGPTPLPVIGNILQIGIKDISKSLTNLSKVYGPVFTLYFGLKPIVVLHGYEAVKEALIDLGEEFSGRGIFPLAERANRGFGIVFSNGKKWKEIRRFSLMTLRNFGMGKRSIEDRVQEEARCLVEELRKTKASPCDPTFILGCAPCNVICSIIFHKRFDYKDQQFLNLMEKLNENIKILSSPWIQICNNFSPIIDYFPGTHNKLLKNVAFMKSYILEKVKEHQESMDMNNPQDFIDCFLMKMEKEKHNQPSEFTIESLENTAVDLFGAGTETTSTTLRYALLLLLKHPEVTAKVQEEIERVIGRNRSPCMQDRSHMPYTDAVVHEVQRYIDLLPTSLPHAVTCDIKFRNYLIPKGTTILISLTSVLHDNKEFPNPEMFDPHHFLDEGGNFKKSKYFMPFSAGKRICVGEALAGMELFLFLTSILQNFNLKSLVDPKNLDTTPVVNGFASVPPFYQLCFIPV

[22] = biological target: CYP2D6 (Homo sapiens, UniProt P10635); experiment: In vitro inhibition of CYP2D6; type: in vitro ADME; conditions: did not inhibit
[23] = biological target: CYP2C8 (Homo sapiens, UniProt P10632); experiment: In vitro inhibition of CYP2C8; type: in vitro ADME; conditions: did not inhibit
Chain of CYP2C8 (P10632 whole entry): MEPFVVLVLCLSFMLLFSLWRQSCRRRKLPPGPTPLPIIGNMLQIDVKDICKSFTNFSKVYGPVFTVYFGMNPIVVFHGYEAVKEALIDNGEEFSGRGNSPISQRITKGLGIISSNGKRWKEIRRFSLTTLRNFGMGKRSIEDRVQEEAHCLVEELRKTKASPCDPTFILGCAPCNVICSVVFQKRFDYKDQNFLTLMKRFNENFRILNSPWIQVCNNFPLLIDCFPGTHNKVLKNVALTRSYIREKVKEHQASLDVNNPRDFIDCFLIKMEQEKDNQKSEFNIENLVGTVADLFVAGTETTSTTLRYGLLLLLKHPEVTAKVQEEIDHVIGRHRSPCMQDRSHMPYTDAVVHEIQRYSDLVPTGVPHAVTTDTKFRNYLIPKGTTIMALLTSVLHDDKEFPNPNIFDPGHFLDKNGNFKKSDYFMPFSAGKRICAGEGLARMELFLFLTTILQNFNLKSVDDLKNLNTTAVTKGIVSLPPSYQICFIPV

[24] = biological target: T1, OATP1B3; experiment: In vitro inhibition of OATP1B3; type: in vitro ADME; conditions: did not inhibit
[25] = test system: CYP3A; experiment: In vitro inhibition of CYP3A; type: in vitro ADME; conditions: human, did not inhibit
[26] = biological target: T2, BCRP (Homo sapiens, UniProt Q9UNQ0); experiment: In vitro inhibition of BCRP; type: in vitro ADME; conditions: did not inhibit
T2 sequence (Q9UNQ0 1-655): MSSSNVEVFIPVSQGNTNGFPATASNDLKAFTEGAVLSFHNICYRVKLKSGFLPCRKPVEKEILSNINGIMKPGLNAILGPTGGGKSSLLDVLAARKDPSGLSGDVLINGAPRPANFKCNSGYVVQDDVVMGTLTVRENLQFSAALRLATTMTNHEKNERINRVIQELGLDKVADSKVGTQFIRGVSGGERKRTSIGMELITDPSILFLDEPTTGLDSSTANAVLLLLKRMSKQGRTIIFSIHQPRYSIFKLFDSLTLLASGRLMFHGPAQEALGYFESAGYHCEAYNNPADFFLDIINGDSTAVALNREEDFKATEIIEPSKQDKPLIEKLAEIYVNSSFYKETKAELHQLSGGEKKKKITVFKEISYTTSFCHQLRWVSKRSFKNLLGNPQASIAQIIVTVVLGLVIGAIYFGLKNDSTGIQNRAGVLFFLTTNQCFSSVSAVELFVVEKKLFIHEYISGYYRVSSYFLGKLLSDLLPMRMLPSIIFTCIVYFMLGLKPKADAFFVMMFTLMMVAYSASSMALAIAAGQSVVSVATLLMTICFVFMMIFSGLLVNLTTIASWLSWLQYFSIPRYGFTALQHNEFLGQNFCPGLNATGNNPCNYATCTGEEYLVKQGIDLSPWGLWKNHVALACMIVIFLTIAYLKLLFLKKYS

[27] = Established and other potentially significant drug interactions for dolutegravir (Table 5); type: in vivo, human
Text: These recommendations are based on either drug interaction trials or predicted interactions due to the expected magnitude of interaction and potential for serious adverse events or loss of efficacy [see Contraindications (4), Clinical Pharmacology (12.3)].

[28] = In vivo rodent micronucleus assay
[29] = test system: HIV; experiment: Antiviral activity in combination with other antiviral agents; type: cell-based
[30] = test system: HIV-1 clinical isolates (group M clades A-G, group O); experiment: Antiviral activity in cell culture against panel of HIV-1 clinical isolates; type: cell-based; conditions: Human immunodeficiency virus 1; 3 in each group of M [clades A-G], and 3 in group O

Chain of OCT1 (O15245 whole entry): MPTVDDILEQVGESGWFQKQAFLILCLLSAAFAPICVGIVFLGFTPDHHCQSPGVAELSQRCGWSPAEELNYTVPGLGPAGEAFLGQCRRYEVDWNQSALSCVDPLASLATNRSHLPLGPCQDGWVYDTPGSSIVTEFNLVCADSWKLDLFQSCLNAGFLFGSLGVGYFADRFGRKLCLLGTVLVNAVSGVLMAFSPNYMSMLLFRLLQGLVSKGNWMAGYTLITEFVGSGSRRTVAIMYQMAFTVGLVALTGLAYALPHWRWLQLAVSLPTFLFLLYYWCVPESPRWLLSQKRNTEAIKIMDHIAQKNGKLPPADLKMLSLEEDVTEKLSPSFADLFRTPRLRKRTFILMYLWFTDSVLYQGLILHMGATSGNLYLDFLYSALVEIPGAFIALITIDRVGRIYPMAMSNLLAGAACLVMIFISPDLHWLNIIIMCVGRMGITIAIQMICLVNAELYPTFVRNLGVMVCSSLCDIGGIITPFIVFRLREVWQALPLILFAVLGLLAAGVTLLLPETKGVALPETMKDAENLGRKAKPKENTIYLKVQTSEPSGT
Chain of bile salt export pump (BSEP) (O95342 whole entry): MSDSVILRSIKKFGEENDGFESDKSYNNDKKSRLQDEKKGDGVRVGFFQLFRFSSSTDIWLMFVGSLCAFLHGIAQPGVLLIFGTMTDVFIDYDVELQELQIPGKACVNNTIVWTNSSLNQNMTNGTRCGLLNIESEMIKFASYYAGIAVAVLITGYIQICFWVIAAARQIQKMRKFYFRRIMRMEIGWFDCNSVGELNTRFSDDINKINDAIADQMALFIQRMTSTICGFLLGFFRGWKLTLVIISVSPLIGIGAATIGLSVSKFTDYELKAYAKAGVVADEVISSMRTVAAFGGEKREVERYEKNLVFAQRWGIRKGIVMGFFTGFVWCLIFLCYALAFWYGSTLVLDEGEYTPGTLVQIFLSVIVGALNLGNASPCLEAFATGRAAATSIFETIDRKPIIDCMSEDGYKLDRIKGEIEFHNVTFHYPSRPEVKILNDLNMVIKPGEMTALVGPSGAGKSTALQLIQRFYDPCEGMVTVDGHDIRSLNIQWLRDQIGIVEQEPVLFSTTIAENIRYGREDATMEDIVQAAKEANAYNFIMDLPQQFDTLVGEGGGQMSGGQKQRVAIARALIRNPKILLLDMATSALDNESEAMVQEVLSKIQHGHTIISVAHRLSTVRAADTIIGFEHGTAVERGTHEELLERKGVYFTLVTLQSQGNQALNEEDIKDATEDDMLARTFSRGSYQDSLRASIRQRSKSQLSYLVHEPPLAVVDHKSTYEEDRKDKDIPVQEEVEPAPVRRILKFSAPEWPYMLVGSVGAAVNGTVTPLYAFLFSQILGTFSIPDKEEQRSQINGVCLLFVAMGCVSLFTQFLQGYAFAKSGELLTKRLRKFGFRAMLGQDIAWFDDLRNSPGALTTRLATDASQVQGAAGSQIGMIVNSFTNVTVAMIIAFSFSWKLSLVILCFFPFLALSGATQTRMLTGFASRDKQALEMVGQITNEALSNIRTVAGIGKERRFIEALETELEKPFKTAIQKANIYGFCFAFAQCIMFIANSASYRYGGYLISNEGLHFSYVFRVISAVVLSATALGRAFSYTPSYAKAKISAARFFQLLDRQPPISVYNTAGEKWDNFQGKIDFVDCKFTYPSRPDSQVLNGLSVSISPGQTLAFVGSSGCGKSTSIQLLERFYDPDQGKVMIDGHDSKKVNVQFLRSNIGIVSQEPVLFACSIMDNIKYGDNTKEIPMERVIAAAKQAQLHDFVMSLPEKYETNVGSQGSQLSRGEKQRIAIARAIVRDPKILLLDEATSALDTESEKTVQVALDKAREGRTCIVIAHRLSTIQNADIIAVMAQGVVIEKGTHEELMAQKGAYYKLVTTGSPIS

For `C[C@@H]1CCO[C@H]2Cn3cc(C(=O)NCc4ccc(F)cc4F)c(=O)c(O)c3C(=O)N12` [Dolutegravir, dolutegravir], the IC50 [1] was over 50 µM, the IC50 [2] was over 50 µM and the “Substrate of P-gp” value [3] was “substrate”. For the same compound, the IC50 [4] was over 50 µM, the IC50 [5] was 6.34 µM and the “AUC exposure multiple of human (50 mg once daily) with no increases in drug-related neoplasms” value [6] was 17 times. For the same compound, the IC50 [7] was 1.97 µM, the “Effects on embryo-fetal development” value [8] was “No adverse effects” and the EC50 [9] was 0.00052 µM. The IC50 [10] was over 50 µM, the “Substrate of OATP1B3” value [11] was “not a substrate” and the IC50 [12] was over 50 µM. For the same compound, the “Induction of CYP1A2” value [13] was “did not induce”, the “Genotoxicity/mutagenicity, mouse lymphoma assay” value [14] was “not genotoxic” and the “Effect on plasma concentrations of tenofovir or para-amino hippurate, substrates of OAT1 and OAT3” value [15] was “did not alter”. The “Neural tube defects, % of births” value ([16]; mothers exposed to dolutegravir-containing regimens at the time of conception, 4 of 426 births) was 0.94%, the “Neural tube defect in infants” value ([16]; women who started dolutegravir during pregnancy (n=2,812)) was “No infant” and the IC50 [17] was 1.93 µM. For the same compound, the IC50 [18] was over 50 µM, the “Induction of CYP3A4” value [19] was “did not induce” and the “Substrate of UGT1A9” value [20] was “substrate”. It also gave an IC50 [21] of over 50 µM, an IC50 [22] of over 50 µM and an IC50 [23] of over 50 µM. The IC50 [24] was over 50 µM, the IC50 [25] was over 50 µM and the IC50 [26] was over 50 µM. The “Effect on Concentration of dolutegravir” value ([27]; concomitant Carbamazepine) was “↓Dolutegravir”, the “Effect on Concentration of dolutegravir” value ([27]; concomitant Oxcarbazepine, Phenytoin, Phenobarbital, trial or predicted interaction) was “↓Dolutegravir” and the “Effect on Concentration of dolutegravir” value ([27]; concomitant Rifampin) was “↓Dolutegravir”. For the same compound, the “Effect on Concentration of dolutegravir” value ([27]; concomitant St. John's wort (Hypericum perforatum), trial or predicted interaction) was “↓Dolutegravir”, the “Effect on Concentration of dolutegravir” value ([27]; concomitant medications containing polyvalent cations (antacids, laxatives, sucralfate, buffered medications)) was “↓Dolutegravir” and the “Effect on Concentration of dolutegravir” value ([27]; concomitant oral calcium and iron supplements, including multivitamins) was “↓Dolutegravir”. The “Genotoxicity, in vivo rodent micronucleus assay” value [28] was “not genotoxic”, the “Antagonism with tested anti-HIV agents” value [29] was “Neither dolutegravir nor lamivudine were antagonistic” and the EC50 [30] was 0.02 to 2.14 nM.
